According to patent US20220211792A1, “COMPOSITION CONTAINING NATURAL EXTRACTS FOR ENHANCEMENT OF INNATE IMMUNITY OR ANTIVIRAL USE AGAINST INFLUENZA VIRUS OR CORONA VIRUS” (OKCHUNDANG CO., LTD., priority 2021, published 2022):

Key:
IAV = assay type: cell-based, influenza A virus
[1] = test system: influenza virus A/PR/8/34-GFP; assay type: cell-based
[2] = test system: influenza virus (A/PR/8/34-GFP); assay type: cell-based

O=C(/C=C/c1ccc(O)c(O)c1)O[C@@H]1C[C@](O)(C(=O)O)C[C@@H](O)[C@H]1O [chlorogenic acid]
levels of IAV proteins compared with untreated cells (IAV): suppressed
level of GFP compared with untreated cells [1]: lower

CC(C)=CCC[C@](C)(O[C@@H]1O[C@H](CO)[C@@H](O)[C@H](O)[C@H]1O)[C@H]1CC[C@]2(C)[C@@H]1[C@H](O)C[C@@H]1[C@@]3(C)CC[C@H](O[C@@H]4O[C@H](CO)[C@@H](O)[C@H](O)[C@H]4O[C@@H]4O[C@H](CO)[C@@H](O)[C@H](O)[C@H]4O)C(C)(C)[C@@H]3CC[C@]12C [ginsenoside Rd]
levels of IAV proteins compared with untreated cells (IAV): suppressed
level of GFP compared with untreated cells [1]: lower

B1: IFN-β: mouse IFN-β (1,000 units/ml), positive control (protein, UniProt P01575 22-182, looked up)
Interferon beta: INYKQLQLQERTNIRKCQELLEQLNGKINLTYRADFKIPMEMTEKMQKSYTAFAIQEMLQNVFLVFRNNFSSTGWNETIVVRLLDELHQQTVFLKTVLEEKQEERLTWEMSSTALHLKSYYWRVQRYLKLMKYNSYAWMVVRAEIFRNFLIIRRLTRNFQN
GFP (influenza virus infection rate) [2]: 1.45
